System: human OA chondrocytes
Assay: IL-1β stimulation of human OA chondrocytes: ZCCHC6, ZCCHC11 and IL-6 expression (TaqMan, ELISA, Western immunoblotting)
Type: cell-based
Protocol: Chondrocytes were derived by enzymatic digestion of human cartilage obtained from OA patients (n=14) undergoing knee joint replacement. Chondrocytes were stimulated with IL-1β (5 ng/ml) or treated with Actinomycin D (5 μg/ml) or NFκB inhibitor SC514 (75 μM) or JNK inhibitor (25 μM). Total RNA from grounded cartilage and from chondrocytes was purified using Qiagen RNeasy kit (Qiagen). Reverse transcription was performed using the Quantitect Reverse Transcription kit and the ZCCHC6 or IL-6 mRNA was quantified using TaqMan assays. SiRNA-mediated depletion of ZCCHC6 in human chondrocytes was used to study the effect on inflammatory cytokine expression using a cytokine array (Ray Biotech). Protein expression of IL-6 was studied using Western immunoblotting and quantified by ELISA in culture supernatants. Results were derived using Sigma Plot 12.3 package and p<0.05 was considered significant.
We next determined whether IL-1β induces expression of IL-6 correlates with the expression of ZCCHC6 in human OA chondrocytes. Human OA chondrocytes were cultured and treated with IL-1β as above and the mRNA expression of IL-6 was quantified by TaqMan assay and secreted IL-6 was quantified using an ELISA kit specific for human IL-6 (R&D Systems, Catalog No. D0650, sensitivity of 2.17 pg IL-6/ml). ZCCHC6 protein expression was determined by Western immunoblotting using an antibody specific for the N-terminus of the protein (Santa Cruz, sc-137947).

[1] = human OA chondrocytes stimulated with IL-1β (5 ng/ml) for 24 h

In the case of “IL-1β: major cytokine involved in cartilage catabolism in osteoarthritis; used to stimulate chondrocytes”, the “expression of ZCCHC6 protein (Western immunoblotting)” value [1] is reported as “highly induced”, the “secreted IL-6 in the culture medium (ELISA)” value [1] is reported as “secreted large amounts of IL-6” and the “expression of ZCCHC11” value (human chondrocytes treated with IL-1β) is reported as “marginally upregulated”.

From patent US20190101533A1, “ANIMAL MODEL FOR STUDYING ZCCHC6 IN BONE DISEASE AND DEVELOPMENT” (Northeast Ohio Medical University, priority 2016, published 2019)
